Source: PMC9481570, “A small molecule antagonist of SMN disrupts the interaction between SMN and RNAP II” (Nature Communications, 2022)
“And” between values parts separate entries of the source, which are not always exact repeats. Equal entries are not always repeated.

Experiments:
Experiment in all cases: Affinity-purification and mass spectrometry (AP-MS) chemical proteomics, all proteins;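 on Difference: 200 µM free competitor with 20 µM biotin probe overnight in lysate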
Type in all cases: binding
[1] = biological target: T1, proteins displaced from immobilized biotin-Cmpd 1 pulldowns (U2OS cell lysate) (Homo sapiens, UniProt Q9BYD6); details: GN=MRPL1 (Q9BYD6)
T1 construct: endogenous in cells; host or cells: U2OS

[2] = biological target: T2, proteins displaced from immobilized biotin-Cmpd 1 pulldowns (U2OS cell lysate) (Homo sapiens, UniProt Q9NUQ6); details: GN=SPATS2L (Q9NUQ6)
T2 construct: endogenous in cells; host or cells: U2OS

[3] = biological target: T3, proteins displaced from immobilized biotin-Cmpd 1 pulldowns (U2OS cell lysate) (Homo sapiens, UniProt P13639); details: GN=EEF2 (P13639)
T3 construct: endogenous in cells; host or cells: U2OS

[4] = biological target: T4, proteins displaced from immobilized biotin-Cmpd 1 pulldowns (U2OS cell lysate) (Homo sapiens, UniProt P61313); details: GN=RPL15 (P61313)
T4 construct: endogenous in cells; host or cells: U2OS

[5] = biological target: T5, proteins displaced from immobilized biotin-Cmpd 1 pulldowns (U2OS cell lysate) (Homo sapiens, UniProt P62306); details: GN=SNRPF (P62306)
T5 construct: endogenous in cells; host or cells: U2OS

[6] = biological target: T6, proteins displaced from immobilized biotin-Cmpd 1 pulldowns (U2OS cell lysate) (Homo sapiens, UniProt O43660); details: GN=PLRG1 (O43660)
T6 construct: endogenous in cells; host or cells: U2OS

[7] = biological target: T7, proteins displaced from immobilized biotin-Cmpd 1 pulldowns (U2OS cell lysate) (Homo sapiens, UniProt P05089); details: GN=ARG1 (P05089)
T7 construct: endogenous in cells; host or cells: U2OS

[8] = biological target: T8, proteins displaced from immobilized biotin-Cmpd 1 pulldowns (U2OS cell lysate) (Homo sapiens, UniProt Q96HE9); details: GN=PRR11 (Q96HE9)
T8 construct: endogenous in cells; host or cells: U2OS

[9] = biological target: T9, proteins displaced from immobilized biotin-Cmpd 1 pulldowns (U2OS cell lysate) (Homo sapiens, UniProt Q13200); details: GN=PSMD2 (Q13200)
T9 construct: endogenous in cells; host or cells: U2OS

[10] = biological target: T10, proteins displaced from immobilized biotin-Cmpd 1 pulldowns (U2OS cell lysate) (Homo sapiens, UniProt P16615); details: GN=ATP2A2 (P16615)
T10 construct: endogenous in cells; host or cells: U2OS
T10 sequence (P16615 whole entry): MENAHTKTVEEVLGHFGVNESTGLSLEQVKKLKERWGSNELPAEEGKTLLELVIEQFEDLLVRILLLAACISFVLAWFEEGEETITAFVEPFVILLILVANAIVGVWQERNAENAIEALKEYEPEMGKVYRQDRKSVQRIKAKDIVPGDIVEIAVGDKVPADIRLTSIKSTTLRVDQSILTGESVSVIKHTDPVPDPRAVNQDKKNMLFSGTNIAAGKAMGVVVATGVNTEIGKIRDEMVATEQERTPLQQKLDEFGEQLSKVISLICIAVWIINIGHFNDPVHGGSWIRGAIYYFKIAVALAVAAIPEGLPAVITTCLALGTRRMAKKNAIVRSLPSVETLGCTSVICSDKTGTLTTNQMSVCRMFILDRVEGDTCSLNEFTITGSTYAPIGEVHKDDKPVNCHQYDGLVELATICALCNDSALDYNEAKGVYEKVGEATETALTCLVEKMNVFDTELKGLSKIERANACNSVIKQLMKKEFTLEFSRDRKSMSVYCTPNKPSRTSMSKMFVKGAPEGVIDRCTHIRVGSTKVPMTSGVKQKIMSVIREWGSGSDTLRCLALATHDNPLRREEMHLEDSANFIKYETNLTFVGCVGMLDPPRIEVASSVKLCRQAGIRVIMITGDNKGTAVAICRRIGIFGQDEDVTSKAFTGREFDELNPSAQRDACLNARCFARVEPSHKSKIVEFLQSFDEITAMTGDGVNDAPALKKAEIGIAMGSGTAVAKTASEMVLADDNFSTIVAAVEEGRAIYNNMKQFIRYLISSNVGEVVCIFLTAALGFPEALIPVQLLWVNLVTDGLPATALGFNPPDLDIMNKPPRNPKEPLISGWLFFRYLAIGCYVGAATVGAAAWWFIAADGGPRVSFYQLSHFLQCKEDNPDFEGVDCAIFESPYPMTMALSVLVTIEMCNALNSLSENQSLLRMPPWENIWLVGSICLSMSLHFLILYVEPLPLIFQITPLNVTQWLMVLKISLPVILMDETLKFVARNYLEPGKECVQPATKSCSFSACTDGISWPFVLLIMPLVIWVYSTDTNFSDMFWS

T6 sequence (O43660 whole entry): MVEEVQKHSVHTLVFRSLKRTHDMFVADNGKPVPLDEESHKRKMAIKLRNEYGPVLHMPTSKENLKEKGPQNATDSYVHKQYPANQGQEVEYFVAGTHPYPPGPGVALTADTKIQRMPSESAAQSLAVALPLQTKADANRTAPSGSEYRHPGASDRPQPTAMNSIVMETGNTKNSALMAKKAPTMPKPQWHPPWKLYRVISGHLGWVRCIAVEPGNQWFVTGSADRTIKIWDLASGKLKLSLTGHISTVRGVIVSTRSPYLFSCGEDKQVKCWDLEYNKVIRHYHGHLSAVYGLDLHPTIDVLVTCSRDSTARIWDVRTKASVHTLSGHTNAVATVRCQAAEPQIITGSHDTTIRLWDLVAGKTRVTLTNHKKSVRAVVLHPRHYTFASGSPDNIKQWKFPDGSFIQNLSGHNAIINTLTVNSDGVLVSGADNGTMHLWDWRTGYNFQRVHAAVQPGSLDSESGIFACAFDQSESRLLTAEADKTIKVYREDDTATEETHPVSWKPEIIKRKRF
T8 sequence (Q96HE9 whole entry): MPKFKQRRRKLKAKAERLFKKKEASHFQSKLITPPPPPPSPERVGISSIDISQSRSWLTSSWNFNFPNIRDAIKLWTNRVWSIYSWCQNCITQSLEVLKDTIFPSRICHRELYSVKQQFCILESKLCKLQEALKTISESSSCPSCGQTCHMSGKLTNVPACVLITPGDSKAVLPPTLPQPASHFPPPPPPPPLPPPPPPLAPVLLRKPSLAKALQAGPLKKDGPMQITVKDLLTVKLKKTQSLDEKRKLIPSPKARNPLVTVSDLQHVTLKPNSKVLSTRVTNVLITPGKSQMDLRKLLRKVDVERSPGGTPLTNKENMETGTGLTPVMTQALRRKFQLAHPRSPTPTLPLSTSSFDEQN
T5 sequence (P62306 whole entry): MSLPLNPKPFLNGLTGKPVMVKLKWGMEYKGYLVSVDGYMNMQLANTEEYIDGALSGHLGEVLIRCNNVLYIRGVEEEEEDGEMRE
T9 sequence (Q13200 whole entry): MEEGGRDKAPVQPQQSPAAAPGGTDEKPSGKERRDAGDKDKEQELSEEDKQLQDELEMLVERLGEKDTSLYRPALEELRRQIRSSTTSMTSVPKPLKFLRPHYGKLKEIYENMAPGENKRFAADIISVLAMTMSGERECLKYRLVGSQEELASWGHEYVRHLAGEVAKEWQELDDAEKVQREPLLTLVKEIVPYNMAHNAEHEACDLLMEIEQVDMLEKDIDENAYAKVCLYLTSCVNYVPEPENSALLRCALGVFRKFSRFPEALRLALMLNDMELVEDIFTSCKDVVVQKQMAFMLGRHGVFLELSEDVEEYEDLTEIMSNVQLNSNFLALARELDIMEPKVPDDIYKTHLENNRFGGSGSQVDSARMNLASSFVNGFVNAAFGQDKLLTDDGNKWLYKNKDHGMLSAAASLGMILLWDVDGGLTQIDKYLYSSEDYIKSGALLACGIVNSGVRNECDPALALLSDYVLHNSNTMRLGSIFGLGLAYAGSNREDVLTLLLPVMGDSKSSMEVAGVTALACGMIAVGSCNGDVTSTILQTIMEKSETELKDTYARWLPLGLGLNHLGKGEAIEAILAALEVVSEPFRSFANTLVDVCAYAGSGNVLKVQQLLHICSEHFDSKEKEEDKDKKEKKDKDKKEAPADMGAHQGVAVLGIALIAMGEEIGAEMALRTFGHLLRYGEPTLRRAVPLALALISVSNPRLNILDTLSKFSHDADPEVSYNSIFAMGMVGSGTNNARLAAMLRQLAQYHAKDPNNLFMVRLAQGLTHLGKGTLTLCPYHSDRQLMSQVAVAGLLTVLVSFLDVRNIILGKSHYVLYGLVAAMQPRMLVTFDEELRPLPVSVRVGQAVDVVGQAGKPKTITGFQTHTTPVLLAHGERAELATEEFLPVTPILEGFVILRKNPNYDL
T7 sequence (P05089 whole entry): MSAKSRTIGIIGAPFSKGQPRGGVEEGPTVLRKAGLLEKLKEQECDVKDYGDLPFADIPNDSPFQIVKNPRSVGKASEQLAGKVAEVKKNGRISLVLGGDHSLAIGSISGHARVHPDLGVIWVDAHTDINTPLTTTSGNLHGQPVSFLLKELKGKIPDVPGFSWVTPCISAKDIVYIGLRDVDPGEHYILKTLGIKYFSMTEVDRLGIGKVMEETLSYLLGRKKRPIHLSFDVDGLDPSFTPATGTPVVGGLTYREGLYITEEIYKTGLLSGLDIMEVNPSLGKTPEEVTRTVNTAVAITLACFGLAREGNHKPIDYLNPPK
T2 sequence (Q9NUQ6 whole entry): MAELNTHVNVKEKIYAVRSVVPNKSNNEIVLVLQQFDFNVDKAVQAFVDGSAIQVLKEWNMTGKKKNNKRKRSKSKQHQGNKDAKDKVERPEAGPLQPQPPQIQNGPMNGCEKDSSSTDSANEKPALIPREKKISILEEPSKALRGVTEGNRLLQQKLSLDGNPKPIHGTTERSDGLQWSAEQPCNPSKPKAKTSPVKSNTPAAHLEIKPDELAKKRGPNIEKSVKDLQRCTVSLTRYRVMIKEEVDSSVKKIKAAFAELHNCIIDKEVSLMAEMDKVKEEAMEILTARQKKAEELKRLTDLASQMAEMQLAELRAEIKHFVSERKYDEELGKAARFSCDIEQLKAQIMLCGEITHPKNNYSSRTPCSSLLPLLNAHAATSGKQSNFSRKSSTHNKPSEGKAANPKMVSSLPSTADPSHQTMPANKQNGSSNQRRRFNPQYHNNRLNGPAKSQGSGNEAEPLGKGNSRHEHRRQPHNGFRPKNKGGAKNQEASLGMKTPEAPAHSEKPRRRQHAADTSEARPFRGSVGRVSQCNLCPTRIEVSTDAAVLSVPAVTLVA

Cn1c2c(c(=N)c3c1CCC3)CCC2 [Compound 1, 4-methyl-2,3,4,5,6,7-hexahydrodicyclopenta[b,e]pyridin-8(1H)-imine]
Difference ([1]; Cmpd minus DMSO, -LOG(P-value) 1.01314): 3.091
iBAQ Cmpd ([1]; replicates 1-3): 18.4151 and 17.6221 and 18.5153
Difference ([2]; Cmpd minus DMSO, -LOG(P-value) 0.875271): 3.1666
iBAQ Cmpd ([2]; replicates 1-3): 21.4367 and 18.8839 and 18.3449
Difference ([3]; Cmpd minus DMSO, -LOG(P-value) 1.71036): -0.7791
iBAQ Cmpd ([3]; replicates 1-3): 17.772 and 17.7165 and 17.939
Difference ([4]; Cmpd minus DMSO, -LOG(P-value) 0.777225): -0.7361
iBAQ Cmpd ([4]; replicates 1-3): 21.3956 and 22.1107 and 21.8582
Difference ([5]; Cmpd minus DMSO, -LOG(P-value) 2.38454): -6.902
iBAQ Cmpd ([5]; replicates 1-3): 16.7845 and 14.607 and 12.7996
Difference ([6]; Cmpd minus DMSO, -LOG(P-value) 0.874244): 2.0669
iBAQ Cmpd ([6]; replicates 1-3): 19.5697 and 18.4715 and 18.0629
Difference ([7]; Cmpd minus DMSO, -LOG(P-value) 0.796604): -1.277
iBAQ Cmpd ([7]; replicates 1-3): 21.3858 and 21.3863 and 20.4096
Difference ([8]; Cmpd minus DMSO, -LOG(P-value) 0.979867): 2.154
iBAQ Cmpd ([8]; replicates 1-3): 17.2458 and 16.9213 and 18.1218
Difference ([9]; Cmpd minus DMSO, -LOG(P-value) 1.86828): -0.9512
iBAQ Cmpd ([9]; replicates 1-3): 17.2697 and 17.2993 and 16.9257
Difference ([10]; Cmpd minus DMSO, -LOG(P-value) 0.792118): 1.325
iBAQ Cmpd ([10]; replicates 1-3): 18.9227 and 18.7034 and 17.2331
